The target in assay [1] is Neprilysin (Rattus norvegicus) (UniProt P07861). Briefly: Compound was tested for inhibitory activity against neutral endopeptidase (NEP) at concentration 10 nM.
The target in assay [2] is T1, Neprilysin (Rattus norvegicus, UniProt P07861).
T1 sequence (P07861 whole entry): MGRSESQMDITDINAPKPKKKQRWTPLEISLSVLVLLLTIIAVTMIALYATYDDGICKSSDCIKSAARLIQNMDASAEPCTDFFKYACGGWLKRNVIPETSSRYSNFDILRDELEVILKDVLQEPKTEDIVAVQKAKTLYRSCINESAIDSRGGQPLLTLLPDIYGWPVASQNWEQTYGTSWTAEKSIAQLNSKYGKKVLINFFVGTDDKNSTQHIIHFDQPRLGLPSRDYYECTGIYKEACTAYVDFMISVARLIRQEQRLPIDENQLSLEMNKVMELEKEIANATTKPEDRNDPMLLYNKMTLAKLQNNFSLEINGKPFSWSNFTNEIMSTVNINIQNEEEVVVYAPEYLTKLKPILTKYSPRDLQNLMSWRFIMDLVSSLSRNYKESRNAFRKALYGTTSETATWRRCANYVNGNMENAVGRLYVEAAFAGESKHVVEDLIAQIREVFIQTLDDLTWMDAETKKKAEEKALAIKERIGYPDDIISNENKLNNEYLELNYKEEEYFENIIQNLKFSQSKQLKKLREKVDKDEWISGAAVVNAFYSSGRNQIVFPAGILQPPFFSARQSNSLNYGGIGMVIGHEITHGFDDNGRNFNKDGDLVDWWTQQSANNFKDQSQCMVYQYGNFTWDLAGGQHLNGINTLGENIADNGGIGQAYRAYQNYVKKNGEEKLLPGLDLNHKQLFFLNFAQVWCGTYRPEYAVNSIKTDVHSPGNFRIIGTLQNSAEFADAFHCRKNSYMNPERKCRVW
The experiment in a line: compound was tested for inhibitory activity against neutral endopeptidase (NEP).

Assay [3] concerns the target T2, Neprilysin (Rattus norvegicus) (UniProt P07861).
T2 sequence (whole entry): T1 sequence (P07861 whole entry)
Briefly: Compound was tested for inhibitory activity against neutral endopeptidase (NEP) at concentration 300 nM.

The target in assay [4] is T3, Endothelin-converting enzyme 1 (Homo sapiens) (UniProt P42892).
T3 sequence (whole entry): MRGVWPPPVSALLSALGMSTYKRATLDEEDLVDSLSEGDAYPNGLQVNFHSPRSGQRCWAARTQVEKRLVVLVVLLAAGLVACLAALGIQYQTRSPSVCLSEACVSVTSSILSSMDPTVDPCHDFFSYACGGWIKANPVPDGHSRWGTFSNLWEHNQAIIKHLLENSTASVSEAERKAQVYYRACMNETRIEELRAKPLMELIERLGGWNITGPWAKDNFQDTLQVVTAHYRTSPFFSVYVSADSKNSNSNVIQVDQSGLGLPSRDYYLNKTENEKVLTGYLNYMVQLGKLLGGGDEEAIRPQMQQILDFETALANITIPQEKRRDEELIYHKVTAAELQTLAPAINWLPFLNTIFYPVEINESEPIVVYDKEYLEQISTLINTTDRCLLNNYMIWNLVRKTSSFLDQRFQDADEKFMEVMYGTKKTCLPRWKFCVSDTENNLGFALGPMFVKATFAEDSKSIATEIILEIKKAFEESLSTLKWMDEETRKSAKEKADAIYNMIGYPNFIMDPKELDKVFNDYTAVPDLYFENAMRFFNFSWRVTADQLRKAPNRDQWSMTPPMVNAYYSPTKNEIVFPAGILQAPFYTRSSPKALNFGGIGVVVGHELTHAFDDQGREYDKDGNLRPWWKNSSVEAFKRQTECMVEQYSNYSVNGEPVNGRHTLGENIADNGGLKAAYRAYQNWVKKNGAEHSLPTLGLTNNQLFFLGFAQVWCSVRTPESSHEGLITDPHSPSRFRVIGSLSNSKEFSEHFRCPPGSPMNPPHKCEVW
Briefly: Compound was tested for inhibitory activity against Endothelin-converting enzyme isolated from guinea pig lung membrane at concentration 10 nM. In kind it is tissue-based. Conditions: Cavia porcellus, target entry is the homologue from another species.

For assay [5], the target named is T1, Neprilysin. Briefly: Compound was tested for inhibitory activity against neutral endopeptidase (NEP).
In assay [6] the target is T2, Neprilysin (Rattus norvegicus). Briefly: Compound was tested for inhibitory activity against neutral endopeptidase (NEP) at concentration 1000 nM.

Among the data in ChEMBL document CHEMBL1149921 (Bioorg Med Chem Lett, 1996) are inhibition and IC50 values, retold here.

As a reminder, the inhibition is the relative decrease from the control value, in per cent. The low end stands for a response near the control, the high end for a response far below the control. As usually defined, the IC50 is the concentration at which inhibition is half-maximal. Read a low IC50 as greater potency.

Take `CC(C)CC(CP(=O)(O)C(N)Cc1ccccc1)C(=O)N[C@@H](Cc1c[nH]c2ccccc12)C(=O)O` (stereo not given in full): the inhibition in assay [1] amounted to 31%. `CC(C)CC(CP(=O)(O)C(CC(C)C)NC(=O)[C@H](CCCCNC(=O)OCc1ccccc1)NS(C)(=O)=O)C(=O)N[C@@H](Cc1c[nH]c2ccccc12)C(=O)O` (stereo not given in full) yielded a 50% inhibitory concentration (IC50) in assay [2] of 320 nM. As to `CC(C)C(CP(=O)(O)C(Cc1ccccc1)NC(=O)[C@H](CCCCNC(=O)OCc1ccccc1)NS(C)(=O)=O)C(=O)N[C@@H](Cc1c[nH]c2ccccc12)C(=O)O` (stereo not given in full), in assay [3], the inhibition came to 19%. Same read-out and setting: the result for `CC(C)CC(CP(=O)(O)C(Cc1ccc2ccccc2c1)NC(=O)[C@H](CCCCN)NS(C)(=O)=O)C(=O)N[C@@H](Cc1c[nH]c2ccccc12)C(=O)O` (stereo not given in full) reads 18%; that for `CC(C)CC(CP(=O)(O)C(Cc1ccc2ccccc2c1)NC(=O)[C@H](CCCCNC(=O)OCc1ccccc1)NS(C)(=O)=O)C(=O)N[C@@H](Cc1c[nH]c2ccccc12)C(=O)O` (stereo not given in full), 13%. In assay [2], `CC(C)C(CP(=O)(O)C(Cc1ccccc1)NC(=O)[C@H](CCCCN)NS(C)(=O)=O)C(=O)N[C@@H](Cc1c[nH]c2ccccc12)C(=O)O` (stereo not given in full) displayed a concentration for half-maximal inhibition (IC50) of 800 nM. In turn, `CC(C)CC(NC(=O)[C@H](CCCCNC(=O)OCc1ccccc1)NS(C)(=O)=O)P(=O)(O)CC(C)C(=O)N[C@@H](Cc1c[nH]c2ccccc12)C(=O)O` (stereo not given in full) gave an inhibition in assay [4] of 57%. The compound further registered a 50% inhibitory concentration (IC50) in assay [5] of 370 nM. In turn, `CC(C)C(CP(=O)(O)C(Cc1ccccc1)NC(=O)[C@H](CCCCN)NC(=O)OCc1ccccc1)C(=O)N[C@@H](Cc1c[nH]c2ccccc12)C(=O)O` (stereo not given in full) displayed an inhibition in assay [6] of 0%. In assay [3], `CC(C)CC(CP(=O)(O)C(Cc1ccccc1)NC(=O)[C@H](CC(C)C)NC(=O)OCc1ccccc1)C(=O)N[C@@H](Cc1c[nH]c2ccccc12)C(=O)O` (stereo not given in full) gave an inhibition of 9%.
